Reference: patent US20260262643A1, “HERBICIDAL BENZOXAZINES” (FMC CORPORATION, priority 2022, published 2026)

How the values were obtained:
barnyardgrass [1] = assay: Test D flooded paddy test; type: in vivo, Echinochloa crus-galli; settings: 250 g ai/ha, applied to paddy water, visual rating after 13 to 14 days, scale 0 to 100 (0 no effect, 100 complete control)
In short: (§1)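 2-leaf plants; flood 3 cm above soil; compound dosed into paddy water; greenhouse 13–14 d; visual rating vs controls, 0–100 (100 = complete control); dash = not tested.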

ragweed [2] = assay: Test C postemergence; type: in vivo, Ambrosia artemisiifolia; settings: 10 days
In short: (§2)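 Test material, in non-phytotoxic solvent with surfactant, was sprayed on the soil directly after seeding (preemergence) or on young plants of 2–10 cm with one to two leaves (postemergence). Greenhouse, 10 days; 0–100 visual control scale.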

galium = assay: Test C postemergence; type: in vivo, Galium aparine; settings: 10 days
In short: as §2

blackgrass [3] = assay: Test C preemergence; type: in vivo, Alopecurus myosuroides; settings: for Blackgrass plant response rating: preemergence, 0 to 100 scale (0 no effect, 100 complete control)
In short: as §2

oat, wild [4] = assay: Test C postemergence; type: in vivo, Avena fatua; settings: 10 days
In short: as §2

green foxtail [5] = assay: Test C preemergence; type: in vivo, Setaria viridis; settings: for Foxtail, Green plant response rating: preemergence, 0 to 100 scale (0 no effect, 100 complete control)
In short: as §2

pigweed, palmer [6] = assay: Test C postemergence; type: in vivo, Amaranthus palmeri; settings: 10 days
In short: as §2

blackgrass [7] = assay: Test C postemergence; type: in vivo, Alopecurus myosuroides; settings: 10 days
In short: as §2

oat, wild [8] = assay: Test C preemergence; type: in vivo, Avena fatua; settings: for Oat, Wild plant response rating: preemergence, 0 to 100 scale (0 no effect, 100 complete control)
In short: as §2

ducksalad = assay: Test D flooded paddy test; type: in vivo, Heteranthera limosa; settings: 250 g ai/ha, applied to paddy water, visual rating after 13 to 14 days, scale 0 to 100 (0 no effect, 100 complete control)
In short: as §1

corn [9] = assay: Test C preemergence; type: in vivo, Zea mays; settings: for Corn plant response rating: preemergence, 0 to 100 scale (0 no effect, 100 complete control)
In short: as §2

sedge, umbrella = assay: Test D flooded paddy test; type: in vivo, Cyperus difformis; settings: 250 g ai/ha, applied to paddy water, visual rating after 13 to 14 days, scale 0 to 100 (0 no effect, 100 complete control)
In short: as §1

barnyardgrass [10] = assay: Test C preemergence; type: in vivo, Echinochloa crusgalli; settings: for Barnyardgrass plant response rating: preemergence, 0 to 100 scale (0 no effect, 100 complete control)
In short: as §2

wheat [11] = assay: Test C preemergence; type: in vivo, Triticum aestivum; settings: for Wheat plant response rating: preemergence, 0 to 100 scale (0 no effect, 100 complete control)
In short: as §2

ryegrass, Italian [12] = assay: Test C postemergence; type: in vivo, Lolium multiflorum; settings: 10 days
In short: as §2

ryegrass, Italian [13] = assay: Test C preemergence; type: in vivo, Lolium multiflorum; settings: for Ryegrass, Italian plant response rating: preemergence, 0 to 100 scale (0 no effect, 100 complete control)
In short: as §2

wheat [14] = assay: Test C postemergence; type: in vivo, Triticum aestivum; settings: 10 days
In short: as §2

pigweed, palmer [15] = assay: Test C preemergence; type: in vivo, Amaranthus palmeri; settings: for Pigweed, Palmer plant response rating: preemergence, 0 to 100 scale (0 no effect, 100 complete control)
In short: as §2

corn [16] = assay: Test C postemergence; type: in vivo, Zea mays; settings: 10 days
In short: as §2

soybean [17] = assay: Test C preemergence; type: in vivo, Glycine max; settings: for Soybean plant response rating: preemergence, 0 to 100 scale (0 no effect, 100 complete control)
In short: as §2

kochia [18] = assay: Test C preemergence; type: in vivo, Bassia scoparia; settings: for Kochia plant response rating: preemergence, 0 to 100 scale (0 no effect, 100 complete control)
In short: as §2

ragweed [19] = assay: Test C preemergence; type: in vivo, Ambrosia artemisiifolia; settings: for Ragweed plant response rating: preemergence, 0 to 100 scale (0 no effect, 100 complete control)
In short: as §2

horseweed = assay: Test C postemergence; type: in vivo, Erigeron canadensis; settings: 10 days
In short: as §2

barnyardgrass [20] = assay: Test C postemergence; type: in vivo, Echinochloa crusgalli; settings: 10 days
In short: as §2

soybean [21] = assay: Test C postemergence; type: in vivo, Glycine max; settings: 10 days
In short: as §2

rice = assay: Test D flooded paddy test; type: in vivo, Oryza sativa; settings: 250 g ai/ha, applied to paddy water, visual rating after 13 to 14 days, scale 0 to 100 (0 no effect, 100 complete control)
In short: as §1

kochia [22] = assay: Test C postemergence; type: in vivo, Bassia scoparia; settings: 10 days
In short: as §2

green foxtail [23] = assay: Test C postemergence; type: in vivo, Setaria viridis; settings: 10 days
In short: as §2

[24] = 125 g ai/ha, postemergence, 0 to 100 scale, 0 no effect, 100 complete control
[25] = 500 g ai/ha, postemergence, 0 to 100 scale (0 no effect, 100 complete control)
[26] = Postemergence, 125 g ai/ha, 0 to 100 scale (0 no effect, 100 complete control)
[27] = Preemergence, 125 g ai/ha, 0 to 100 scale, 0 no effect, 100 complete control

CCc1ncn(-c2ccc(C)c(C(=O)N3CC(C(F)(F)F)Oc4c(Cl)cccc43)c2)n1 (racemic) [Compound 290]
85: Plant response rating, Sedge, Umbrella (Flood) (sedge, umbrella)
30: Corn plant response rating (corn [9]; Test C, 125 g ai/ha) | Wheat plant response rating (wheat [11]; Test C, 125 g ai/ha) | Plant response rating, Wheat (wheat [14]; [24]) | Plant response rating, Corn (corn [16]; [24]) | Plant response rating, Corn (corn [16]; [25])
100: Plant response rating, Galium (galium; [24]) | Plant response rating, Galium (galium; [25]) | Foxtail, Green plant response rating (green foxtail [5]; 500 g ai/ha) | Foxtail, Green plant response rating (green foxtail [5]; Test C, 125 g ai/ha) | Plant response rating, Pigweed, Palmer (pigweed, palmer [6]; [24]) | Plant response rating, Pigweed, Palmer (pigweed, palmer [6]; [25]) | Barnyardgrass plant response rating (barnyardgrass [10]; 500 g ai/ha) | Ryegrass, Italian plant response rating (ryegrass, Italian [13]; 500 g ai/ha) | Pigweed, Palmer plant response rating (pigweed, palmer [15]; 500 g ai/ha) | Pigweed, Palmer plant response rating (pigweed, palmer [15]; Test C, 125 g ai/ha) | Plant response rating, Soybean (soybean [21]; [24]) | Plant response rating, Soybean (soybean [21]; [25])
70: Plant response rating, Ragweed (ragweed [2]; [24]) | Blackgrass plant response rating (blackgrass [3]; 500 g ai/ha) | Blackgrass plant response rating (blackgrass [3]; Test C, 125 g ai/ha) | Oat, Wild plant response rating (oat, wild [8]; Test C, 125 g ai/ha) | Ragweed plant response rating (ragweed [19]; 500 g ai/ha)
40: Corn plant response rating (corn [9]; 500 g ai/ha) | Plant response rating, Horseweed (horseweed; [24]) | Plant response rating, Horseweed (horseweed; [25])
50: Plant response rating, Ducksalad (Flood) (ducksalad) | Wheat plant response rating (wheat [11]; 500 g ai/ha) | Plant response rating, Ryegrass, Italian (ryegrass, Italian [12]; [24]) | Plant response rating, Barnyardgrass (barnyardgrass [20]; [24])
90: Plant response rating, Oat, Wild (oat, wild [4]; [25]) | Plant response rating, Blackgrass (blackgrass [7]; [25]) | Oat, Wild plant response rating (oat, wild [8]; 500 g ai/ha) | Barnyardgrass plant response rating (barnyardgrass [10]; Test C, 125 g ai/ha) | Plant response rating, Ryegrass, Italian (ryegrass, Italian [12]; [25]) | Ryegrass, Italian plant response rating (ryegrass, Italian [13]; Test C, 125 g ai/ha) | Soybean plant response rating (soybean [17]; Test C, 125 g ai/ha) | Kochia plant response rating (kochia [18]; 500 g ai/ha) | Kochia plant response rating (kochia [18]; Test C, 125 g ai/ha) | Plant response rating, Barnyardgrass (barnyardgrass [20]; [25]) | Plant response rating, Kochia (kochia [22]; [25]) | Plant response rating, Foxtail, Green (green foxtail [23]; [25])
10: Plant response rating, Barnyardgrass (Flood) (barnyardgrass [1]) | Plant response rating, Oat, Wild (oat, wild [4]; [24]) | Plant response rating, Blackgrass (blackgrass [7]; [24]) | Plant response rating, Rice (Flood) (rice)
80: Plant response rating, Ragweed (ragweed [2]; [25]) | Soybean plant response rating (soybean [17]; 500 g ai/ha) | Plant response rating, Kochia (kochia [22]; [24]) | Plant response rating, Foxtail, Green (green foxtail [23]; [24])
60: Plant response rating, Wheat (wheat [14]; [25]) | Ragweed plant response rating (ragweed [19]; Test C, 125 g ai/ha)

CCOC[C@H]1CN(C(=O)c2cc(-n3cnc(C(C)C)n3)cc3c2OCCO3)c2cccc(Cl)c2O1 [Compound 396]
60: Plant response rating, Ryegrass, Italian (ryegrass, Italian [13]; [27]) | Plant response rating, Corn (corn [16]; [25]) | Plant response rating, Soybean (soybean [17]; [27]) | Plant response rating, Horseweed (horseweed; [25]) | Plant response rating, Foxtail, Green (green foxtail [23]; [26])
30: Plant response rating, Blackgrass (blackgrass [7]; [26]) | Plant response rating, Oat, Wild (oat, wild [8]; [27]) | Wheat plant response rating (wheat [11]; 500 g ai/ha) | Plant response rating, Barnyardgrass (barnyardgrass [20]; [26])
20: Plant response rating, Blackgrass (blackgrass [3]; [27]) | Plant response rating, Oat, Wild (oat, wild [4]; [26]) | Plant response rating, Wheat (wheat [14]; [26])
0: Plant response rating, Barnyardgrass (Flood) (barnyardgrass [1]) | Plant response rating, Ducksalad (Flood) (ducksalad) | Plant response rating, Sedge, Umbrella (Flood) (sedge, umbrella) | Plant response rating, Wheat (wheat [11]; [27]) | Plant response rating, Ryegrass, Italian (ryegrass, Italian [12]; [26]) | Plant response rating, Horseweed (horseweed; [26]) | Plant response rating, Rice (Flood) (rice)
40: Blackgrass plant response rating (blackgrass [3]; 500 g ai/ha) | Plant response rating, Oat, Wild (oat, wild [4]; [25]) | Corn plant response rating (corn [9]; 500 g ai/ha)
10: Plant response rating, Corn (corn [9]; [27])
80: Plant response rating, Ragweed (ragweed [19]; [27]) | Plant response rating, Kochia (kochia [22]; [26]) | Plant response rating, Foxtail, Green (green foxtail [23]; [25])
90: Plant response rating, Foxtail, Green (green foxtail [5]; [27]) | Plant response rating, Pigweed, Palmer (pigweed, palmer [6]; [25]) | Plant response rating, Pigweed, Palmer (pigweed, palmer [6]; [26]) | Oat, Wild plant response rating (oat, wild [8]; 500 g ai/ha) | Barnyardgrass plant response rating (barnyardgrass [10]; 500 g ai/ha) | Ryegrass, Italian plant response rating (ryegrass, Italian [13]; 500 g ai/ha) | Kochia plant response rating (kochia [18]; 500 g ai/ha) | Ragweed plant response rating (ragweed [19]; 500 g ai/ha)
70: Plant response rating, Ragweed (ragweed [2]; [26]) | Plant response rating, Blackgrass (blackgrass [7]; [25]) | Plant response rating, Kochia (kochia [18]; [27])
100: Plant response rating, Galium (galium; [25]) | Plant response rating, Galium (galium; [26]) | Foxtail, Green plant response rating (green foxtail [5]; 500 g ai/ha) | Pigweed, Palmer plant response rating (pigweed, palmer [15]; 500 g ai/ha) | Plant response rating, Pigweed, Palmer (pigweed, palmer [15]; [27]) | Soybean plant response rating (soybean [17]; 500 g ai/ha) | Plant response rating, Soybean (soybean [21]; [26]) | Plant response rating, Kochia (kochia [22]; [25])
50: Plant response rating, Barnyardgrass (barnyardgrass [10]; [27]) | Plant response rating, Corn (corn [16]; [26]) | Plant response rating, Barnyardgrass (barnyardgrass [20]; [25])
